We go through 4 compounds from US11472778B2, “Hepatitis C virus NS3/4A protease inhibitors” (priority 2017, dated 2022).

For data set [1] the following is noted: rcm bond, 15-membered ring, Zhan 1b, 1,2-DCE.
In data set [2] the target is T1, GT1a D168A NS3/4A protease (UniProt P27958, C1185S/D1194A, species not given).
T1 construct: Ki (nM) GT1a D168A NS3/4A Protease
The data set is classed as biochemical, Hepatitis C virus. The following applies: read-out: Ki (nM) GT1a D168A NS3/4A Protease. The essentials:
(§1)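 Enzyme (GT1a wild type or D168A mutant, 2 nM) was preincubated with inhibitor dilutions for 1 h at room temperature in pH 7.5 Tris buffer with glycerol, DTT, LDAO and 4% DMSO.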

For data set [3], the target named is GT1a D168A NS3/4A protease. The data set is classed as biochemical, Hepatitis C virus. The note with it: Table 3; Ki D168A relative to GT1a WT. An outline of the steps: as §1
The target in data set [4] is T2, wild-type GT1a NS3/4A protease (UniProt P27958, C1185S, species not given).
T2 construct: Ki (nM) GT1a WT NS3/4A Protease
The format is biochemical, Hepatitis C virus. The note with it: read-out: Ki (nM) GT1a WT NS3/4A Protease. The essentials:
as §1

Data set [5] concerns the target T3, GT3a NS3/4A protease (Hepatitis C virus genotype 3a, UniProt Q81495).
T3 construct: drug-resistant variant D168A, and GT3a NS3/4A protease; made in house; host or cells: Escherichia coli BL21(DE3)
Put plainly: biochemical. The following applies: for Ki (Fold change) GT3a NS3/4A Protease: Table 3, Ki GT3a relative to GT1a WT. An outline of the steps:
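Protease at 2 nM pre-incubated 1 h at room temperature with increasing inhibitor concentrations in 50 mM Tris, 5% glycerol, 10 mM DTT, 0.6 mM LDAO, 4% DMSO. Three independent data sets per inhibitor and construct.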

Data set [6] deals with wild-type HCV replicon in Huh7 cells. Put plainly: Cell-based drug susceptibility (replicon) assay, wild-type. The following applies: Hepatitis C virus, read-out: Replicon EC50 (nM) WT. The essentials:
(§2)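 Protease variants were introduced by site-directed mutagenesis into a genotype 1b Con1 luciferase replicon containing genotype 1a H77 NS3. Each replicon RNA was electroporated into Huh7 cells. Inhibitor was titrated upward. Luminescence was measured after 96 h.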
Background: Replicon systems follow genome replication, usually without infectious particles.

The subject of data set [7] is HCV replicon A156T variant in Huh7 cells. Put plainly: microbe, parasite or virus in culture. The data set is classed as cell-based, Hepatitis C virus. The following applies: for EC50: Hepatitis C virus; for Replicon EC50 (Fold change) A156T: Table 4, relative to WT replicon. An outline of the steps: as §2
Data set [8] relates to HCV replicon D168A variant in Huh7 cells. Put plainly: microbe, parasite or virus in culture. The format is cell-based, Hepatitis C virus. The note with it: for EC50: Hepatitis C virus; for Replicon EC50 (Fold change) D168A: Table 4, relative to WT replicon. The essentials:
as §2

Data set [9] has as its system HCV replicon R155K variant in Huh7 cells. Put plainly: microbe, parasite or virus in culture. The format is cell-based, Hepatitis C virus. The following applies: for EC50: Hepatitis C virus; for Replicon EC50 (Fold change) R155K: Table 4, relative to WT replicon. An outline of the steps: as §2
The test system of data set [10] is HCV replicon D168V variant in Huh7 cells. Put plainly: microbe, parasite or virus in culture. The format is cell-based, Hepatitis C virus. The note with it: for EC50: Hepatitis C virus; for Replicon EC50 (Fold change) D168V: Table 4, relative to WT replicon. An outline of the steps:
as §2

The mark [11] stands for this setting: Huh-7, 96 h, Table 2, Huh7 cells, luciferase 96 h.
Where [12] appears, read: Huh-7, 96 h, read-out: Replicon EC50 (nM) A156T, Table 2, Huh7 cells, luciferase 96 h.
Setting [13] is: Huh-7, read-out: Replicon EC50 (nM) A156T, Table 4.
Setting [14] is: Huh-7, 96 h, read-out: Replicon EC50 (nM) D168A, Table 2, Huh7 cells, luciferase 96 h.
The mark [15] stands for this setting: Huh-7, read-out: Replicon EC50 (nM) D168A, Table 4.
[16] abbreviates: Huh-7, 96 h, read-out: Replicon EC50 (nM) R155K, Table 2, Huh7 cells, luciferase 96 h.
Setting [17] is: Huh-7, read-out: Replicon EC50 (nM) R155K, Table 4.
[18] abbreviates: Huh-7, 96 h, read-out: Replicon EC50 (nM) D168V, Table 2, Huh7 cells, luciferase 96 h.
Where [19] appears, read: Huh-7, read-out: Replicon EC50 (nM) D168V, Table 4.

Read-outs that look alike come from different tables or passages of the source.

T3 sequence (Q81495 1033-1214): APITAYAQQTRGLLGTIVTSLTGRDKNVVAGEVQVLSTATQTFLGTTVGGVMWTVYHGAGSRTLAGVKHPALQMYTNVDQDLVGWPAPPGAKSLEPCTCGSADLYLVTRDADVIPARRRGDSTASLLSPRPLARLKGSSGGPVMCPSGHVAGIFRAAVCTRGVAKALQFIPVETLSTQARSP

For the compound `COc1ccc2nc(C)c(O[C@@H]3C[C@H]4C(=O)N[C@]5(C(=O)NS(=O)(=O)C6CC6)C[C@H]5/C=C\CCCCC[C@H](NC(=O)OC(C)(C)C)C(=O)N4C3)nc2c1` [Compound 18b, tert-Butyl ((2R,6S,13aS,14aR,16aS,Z)-14a-((cyclopropylsulfonyl)carbamoyl)-2-((7-methoxy-3-methylquinoxalin-2-yl)oxy)-5,16-dioxo-1,2,3,5,6,7,8,9,10,11,13a,14,14a,15,16,16a-hexadecahydrocyclopropa[e]pyrrolo[1,2-a][1,4]diazacyclopentadecin-6-yl)carbamate], the ring closure, isolated yield in [1] (6.5 mM, 70.0 °C) came out at 45%. The Ki in data set [2] (Table 1) amounted to 50.9 nM; in data set [2] (Table 3), 50.9 ± 3.7 nM; in data set [4] (Table 1), 3.4 nM; in data set [4] (Table 3), 3.4 nM; in data set [5] it was 152 nM. In [3], the “Ki (Fold change) GT1a D168A NS3/4A Protease” value was “(15) fold”. For the same compound, in [5], the “Ki (Fold change) GT3a NS3/4A Protease” value is “(45) fold”. Further, the EC50 – broadly, the midpoint of the concentration-response curve – in [6] (setting [11]) amounted to 0.39 nM; in data set [6] (Huh-7, Table 4) it was 0.39 nM; in [7] (setting [12]), 5.95 nM; in [7] (setting [13]), 5.95 nM; in data set [8] (setting [14]) it was 4.24 nM; in [8] (setting [15]), 4.24 nM. Further, the EC50 in data set [9] (setting [16]) amounted to 1.17 nM; in data set [9] (setting [17]) it was 1.17 nM; in [10] (setting [18]), 3.17 nM; in data set [10] (setting [19]), 3.17 nM. Moreover, the “Replicon EC50 (Fold change) A156T” value in data set [7] is “(15) fold”. In data set [8], the “Replicon EC50 (Fold change) D168A” value is “(11) fold”. Moreover, the “Replicon EC50 (Fold change) R155K” value in data set [9] is listed as “(3) fold”. The “Replicon EC50 (Fold change) D168V” value in [10] is “(8) fold”.

Compound `COc1ccc2nc(Cl)c(O[C@@H]3C[C@H]4C(=O)N[C@]5(C(=O)NS(=O)(=O)C6CC6)C[C@H]5/C=C\CCCCC[C@H](NC(=O)OC(C)(C)C)C(=O)N4C3)nc2c1` [Compound 18c, tert-Butyl ((2R,6S,13aS,14aR,16aS,Z)-2-((3-chloro-7-methoxyquinoxalin-2-yl)oxy)-14a-((cyclopropylsulfonyl)carbamoyl)-5,16-dioxo-1,2,3,5,6,7,8,9,10,11,13a,14,14a,15,16,16a-hexadecahydrocyclopropa[e]pyrrolo[1,2-a][1,4]diazacyclopentadecin-6-yl)carbamate] came in with a ring closure, isolated yield in data set [1] (6.3 mM, 70.0 °C) of 50%. Moreover, the Ki in data set [2] (Table 1) was found to be 39.8 nM; in [2] (Table 3), 39.8 ± 3.4 nM; in data set [4] (Table 1) it was 1.07 nM; in [4] (Table 3), 1.07 nM; in data set [5] it was 67.5 nM. Further, in [3], the “Ki (Fold change) GT1a D168A NS3/4A Protease” value is “(37) fold”. Further, the “Ki (Fold change) GT3a NS3/4A Protease” value in data set [5] is on record as “(63) fold”. The EC50 in data set [6] (Huh-7, Table 4) was 0.16 nM; in data set [7] (setting [12]), 16.2 nM; in data set [7] (setting [13]) it was 16.2 nM; in data set [8] (setting [14]) it was under 2 nM; in [8] (setting [15]), 1.42 nM; in data set [9] (setting [17]), 0.44 nM. Also, the EC50 in data set [10] (setting [18]) was under 1 nM; in data set [10] (setting [19]), 0.73 nM. Also, the “Replicon EC50 (Fold change) A156T” value in [7] is “(101) fold”. For the same compound, the “Replicon EC50 (Fold change) D168A” value in data set [8] was “(9) fold”. Further, the “Replicon EC50 (Fold change) R155K” value in [9] is reported as “(3) fold”. Further, the “Replicon EC50 (Fold change) D168V” value in [10] is listed as “(5) fold”.

`CCc1nc2ccccc2nc1O[C@@H]1C[C@H]2C(=O)N[C@]3(C(=O)NS(=O)(=O)C4CC4)C[C@H]3/C=C\CCCCC[C@H](NC(=O)OC(C)(C)C)C(=O)N2C1` [Compound 18g, tert-Butyl ((2R,6S,13aS,14aR,16aS,Z)-14a-((cyclopropylsulfonyl)carbamoyl)-2-((3-ethylquinoxalin-2-yl)oxy)-5,16-dioxo-1,2,3,5,6,7,8,9,10,11,13a,14,14a,15,16,16a-hexadecahydrocyclopropa[e]pyrrolo[1,2-a][1,4]diazacyclopentadecin-6-yl)carbamate] had a ring closure, isolated yield in data set [1] (6.9 mM) of 60%. Further, the Ki in [2] (Table 1) worked out at 190 nM; in data set [2] (Table 3) it was 190 ± 13 nM; in data set [4] (Table 1), 7.18 nM; in data set [4] (Table 3) it was 7.18 nM. Also, the “Ki (Fold change) GT1a D168A NS3/4A Protease” value in data set [3] was “(26) fold”. Also, the EC50 in data set [6] (setting [11]) amounted to 0.46 nM; in data set [6] (Huh-7, Table 4) it was 0.46 nM; in data set [7] (setting [12]), 10.6 nM; in data set [7] (setting [13]) it was 10.6 nM; in data set [8] (setting [14]) it was 8.55 nM; in [8] (setting [15]) it was 8.55 nM. Also, the EC50 in [9] (setting [16]) came to 1.81 nM; in data set [9] (setting [17]) it was 1.81 nM; in [10] (setting [18]) it was 14 nM; in [10] (setting [19]), 14 nM. Moreover, in [7], the “Replicon EC50 (Fold change) A156T” value is listed as “(23) fold”. Also, the “Replicon EC50 (Fold change) D168A” value in data set [8] is reported as “(19) fold”. Also, in data set [9], the “Replicon EC50 (Fold change) R155K” value was “(4) fold”. Moreover, the “Replicon EC50 (Fold change) D168V” value in [10] is “(30) fold”.

With `COc1ccc2nc(C(C)C)c(O[C@@H]3C[C@H]4C(=O)N[C@]5(C(=O)NS(=O)(=O)C6(C)CC6)C[C@H]5/C=C\CCCCC[C@H](NC(=O)OC(C)(C)C)C(=O)N4C3)nc2c1` [Compound 19e, tert-Butyl ((2R,6S,13aS,14aR,16aS,Z)-2-((3-isopropyl-7-methoxyquinoxalin-2-yl)oxy)-14a-(((1-methylcyclopropyl)sulfonyl)carbamoyl)-5,16-dioxo-1,2,3,5,6,7,8,9,10,11,13a,14,14a,15,16,16a-hexadecahydrocyclopropa[e]pyrrolo[1,2-a][1,4]diazacyclopentadecin-6-yl)carbamate], the ring closure, isolated yield in [1] (6.6 mM) was determined as 60%. Further, the Ki in data set [2] (Table 1) came to 211 nM; in data set [2] (Table 3), 211 ± 19 nM; in data set [4] (Table 1) it was 0.58 nM; in data set [4] (Table 3) it was 0.58 nM. In addition, the “Ki (Fold change) GT1a D168A NS3/4A Protease” value in data set [3] is recorded as “(364) fold”. Besides, the EC50 in data set [6] (setting [11]) came to 1.86 nM; in [6] (Huh-7, Table 4), 1.86 nM; in data set [7] (setting [12]), 21.2 nM; in [7] (setting [13]), 21.2 nM; in data set [8] (setting [14]) it was 11.9 nM; in [8] (setting [15]) it was 11.9 nM. The EC50 is 4.14 nM in data set [9] (setting [16]), 4.14 nM in data set [9] (setting [17]), 18.1 nM in [10] (setting [18]) and 18.1 nM in [10] (setting [19]). In addition, the “Replicon EC50 (Fold change) A156T” value in [7] is “(11) fold”. In addition, the “Replicon EC50 (Fold change) D168A” value in data set [8] is “(6) fold”. In addition, in data set [9], the “Replicon EC50 (Fold change) R155K” value was “(2) fold”. In [10], the “Replicon EC50 (Fold change) D168V” value is recorded as “(10) fold”.
